According to ChEMBL document CHEMBL1131296 (J Med Chem, 1998):

Tests used:
[1] = target: T1, Alpha-1A adrenergic receptor (Rattus norvegicus, UniProt P43140); test: Antagonism of the norepinephrine induced contraction of rat isolated prostatic vas deferens.; assay type: functional; details: read-out: pA2 (converted)
T1 sequence (P43140 whole entry): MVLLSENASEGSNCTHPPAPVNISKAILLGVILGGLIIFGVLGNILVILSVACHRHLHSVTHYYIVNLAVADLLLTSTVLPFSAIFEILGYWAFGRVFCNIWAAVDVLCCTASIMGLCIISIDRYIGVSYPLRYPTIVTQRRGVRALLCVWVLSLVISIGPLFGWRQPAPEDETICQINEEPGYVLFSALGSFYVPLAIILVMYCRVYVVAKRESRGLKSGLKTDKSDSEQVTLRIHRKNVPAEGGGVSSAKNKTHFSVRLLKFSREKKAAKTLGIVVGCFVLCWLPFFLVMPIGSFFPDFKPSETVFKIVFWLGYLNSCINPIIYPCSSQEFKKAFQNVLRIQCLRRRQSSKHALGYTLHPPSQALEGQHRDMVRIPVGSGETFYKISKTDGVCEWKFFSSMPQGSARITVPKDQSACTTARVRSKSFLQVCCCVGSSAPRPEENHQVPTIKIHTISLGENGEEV

[2] = target: T2, Alpha-1D adrenergic receptor (Rattus norvegicus, UniProt P23944); test: Antagonism of norepinephrine induced contraction of rat isolated thoracic aorta.; assay type: functional, tissue-based; details: read-out: pA2 (converted)
T2 sequence (P23944 whole entry): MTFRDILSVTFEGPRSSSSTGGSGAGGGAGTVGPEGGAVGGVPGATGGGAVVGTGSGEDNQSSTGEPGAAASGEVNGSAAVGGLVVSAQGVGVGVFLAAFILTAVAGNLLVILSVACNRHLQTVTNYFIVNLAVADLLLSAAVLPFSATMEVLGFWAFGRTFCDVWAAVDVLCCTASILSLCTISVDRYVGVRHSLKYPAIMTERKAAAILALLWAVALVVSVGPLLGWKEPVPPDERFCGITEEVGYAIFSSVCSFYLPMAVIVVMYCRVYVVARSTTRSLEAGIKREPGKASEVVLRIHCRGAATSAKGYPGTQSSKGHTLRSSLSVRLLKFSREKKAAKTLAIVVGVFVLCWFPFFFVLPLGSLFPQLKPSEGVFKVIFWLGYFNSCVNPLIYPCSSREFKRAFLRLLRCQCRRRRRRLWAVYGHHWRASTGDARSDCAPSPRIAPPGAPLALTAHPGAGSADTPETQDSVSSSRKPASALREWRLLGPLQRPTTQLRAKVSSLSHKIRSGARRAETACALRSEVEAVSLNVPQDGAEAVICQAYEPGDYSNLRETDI

[3] = target: T3, Alpha-1B adrenergic receptor (Rattus norvegicus, UniProt P15823); test: Antagonism of phenylephrine stimulated contraction of the rat isolated spleen.; assay type: functional, tissue-based; details: read-out: pA2 (converted)
T3 sequence (P15823 whole entry): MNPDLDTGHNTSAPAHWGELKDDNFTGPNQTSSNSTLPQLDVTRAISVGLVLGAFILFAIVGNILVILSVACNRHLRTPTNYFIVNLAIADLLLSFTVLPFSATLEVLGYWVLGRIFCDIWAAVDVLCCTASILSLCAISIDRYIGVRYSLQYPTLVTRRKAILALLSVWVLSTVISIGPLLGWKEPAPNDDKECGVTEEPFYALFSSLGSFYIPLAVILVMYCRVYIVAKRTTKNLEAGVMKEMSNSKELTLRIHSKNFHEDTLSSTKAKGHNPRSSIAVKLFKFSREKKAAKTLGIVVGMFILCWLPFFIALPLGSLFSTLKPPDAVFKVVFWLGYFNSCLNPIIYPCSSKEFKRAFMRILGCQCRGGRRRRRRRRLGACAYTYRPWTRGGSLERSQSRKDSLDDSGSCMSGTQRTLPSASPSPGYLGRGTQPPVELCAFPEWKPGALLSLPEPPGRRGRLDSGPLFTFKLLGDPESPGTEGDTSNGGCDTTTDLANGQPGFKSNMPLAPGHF

[4] = target: T4, Adrenergic receptor alpha-2 (Rattus norvegicus, UniProt P22086+P19328+P22909); test: Antagonism of the clonidine-induced depression of twitch responses of rat isolated prostatic vas deferens.
T4 sequence (P22086 whole entry): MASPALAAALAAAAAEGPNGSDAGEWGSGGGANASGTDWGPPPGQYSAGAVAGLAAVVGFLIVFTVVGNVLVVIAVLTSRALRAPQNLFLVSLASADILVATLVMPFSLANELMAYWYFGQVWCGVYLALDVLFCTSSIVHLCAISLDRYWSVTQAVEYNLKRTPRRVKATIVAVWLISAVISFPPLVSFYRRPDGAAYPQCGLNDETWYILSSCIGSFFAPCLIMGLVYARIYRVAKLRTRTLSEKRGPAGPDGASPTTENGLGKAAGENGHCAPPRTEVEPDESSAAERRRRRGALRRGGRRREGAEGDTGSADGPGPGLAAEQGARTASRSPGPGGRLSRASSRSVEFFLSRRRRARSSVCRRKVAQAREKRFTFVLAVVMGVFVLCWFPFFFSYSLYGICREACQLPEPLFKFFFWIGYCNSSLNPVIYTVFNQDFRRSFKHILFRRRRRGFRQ
T4 sequence (P19328 whole entry): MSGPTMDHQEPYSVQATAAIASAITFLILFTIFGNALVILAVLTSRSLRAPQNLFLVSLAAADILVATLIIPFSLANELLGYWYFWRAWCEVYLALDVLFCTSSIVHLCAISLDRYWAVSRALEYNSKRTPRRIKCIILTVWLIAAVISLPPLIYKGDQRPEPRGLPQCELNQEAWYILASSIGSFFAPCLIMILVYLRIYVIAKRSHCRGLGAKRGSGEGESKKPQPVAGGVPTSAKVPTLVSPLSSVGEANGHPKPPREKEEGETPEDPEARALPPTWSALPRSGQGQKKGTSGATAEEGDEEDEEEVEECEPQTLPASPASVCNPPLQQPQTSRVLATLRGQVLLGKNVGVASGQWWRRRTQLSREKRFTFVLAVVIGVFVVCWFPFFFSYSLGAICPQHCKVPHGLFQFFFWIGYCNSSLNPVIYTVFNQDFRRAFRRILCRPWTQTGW
T4 sequence (P22909 whole entry): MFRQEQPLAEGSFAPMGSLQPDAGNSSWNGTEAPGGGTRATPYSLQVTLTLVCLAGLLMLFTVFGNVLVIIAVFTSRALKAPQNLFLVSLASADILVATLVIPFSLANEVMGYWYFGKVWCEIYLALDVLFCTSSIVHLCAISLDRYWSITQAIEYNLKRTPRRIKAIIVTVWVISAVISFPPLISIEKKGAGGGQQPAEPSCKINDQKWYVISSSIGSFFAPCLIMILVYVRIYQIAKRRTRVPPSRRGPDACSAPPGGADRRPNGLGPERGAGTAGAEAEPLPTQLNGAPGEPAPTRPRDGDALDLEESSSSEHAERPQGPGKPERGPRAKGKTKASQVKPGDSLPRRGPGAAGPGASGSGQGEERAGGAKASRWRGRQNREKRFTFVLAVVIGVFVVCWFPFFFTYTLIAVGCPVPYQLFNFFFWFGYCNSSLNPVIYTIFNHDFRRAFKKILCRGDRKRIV

[5] = target: T5, Alpha-1B adrenergic receptor (Homo sapiens, UniProt P35368); test: Binding affinity at human cloned Alpha-1B adrenergic receptor in chinese hamster ovary cells by [3H]prazosin displacement.; assay type: cell-based, CHO
T5 sequence (P35368 whole entry): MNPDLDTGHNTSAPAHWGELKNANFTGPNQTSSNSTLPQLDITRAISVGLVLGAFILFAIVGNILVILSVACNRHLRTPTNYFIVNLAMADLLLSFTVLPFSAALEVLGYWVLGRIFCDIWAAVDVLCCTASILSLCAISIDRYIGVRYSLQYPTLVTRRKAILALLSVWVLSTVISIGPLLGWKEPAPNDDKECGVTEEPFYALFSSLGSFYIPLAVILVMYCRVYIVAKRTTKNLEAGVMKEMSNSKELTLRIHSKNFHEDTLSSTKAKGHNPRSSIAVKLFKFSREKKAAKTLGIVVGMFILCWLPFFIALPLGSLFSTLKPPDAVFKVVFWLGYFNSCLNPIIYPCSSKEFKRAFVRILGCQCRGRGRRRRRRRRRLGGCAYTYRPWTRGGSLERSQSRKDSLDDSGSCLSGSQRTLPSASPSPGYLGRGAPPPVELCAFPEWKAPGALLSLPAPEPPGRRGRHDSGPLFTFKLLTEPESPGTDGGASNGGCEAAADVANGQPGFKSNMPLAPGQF

| Kb [1] [nM] | Kb [2] [nM] | Kb [3] [nM] | pA2 [4] | Ki [5] [nM] | SMILES |
| --- | --- | --- | --- | --- | --- |
| 191 | 3.47 | 0.617 | 5.6 |  | CNCCCCCCN(C)Cc1ccc(C(=O)N(C)CCCCCCN(C)c2nc(N)c3cc(OC)c(OC)cc3n2)cc1 |
| 8.91 | 14.5 | 19.5 | < 5 |  | CNCCCCCCN(C)Cc1cccc(C(=O)N(C)CCCCCCN(C)c2nc(N)c3cc(OC)c(OC)cc3n2)c1 |
| 38 | 6.92 | 0.447 | 6.52 |  | COc1cc2nc(N(C)CCCCCCN(C)C(=O)c3ccccc3)nc(N)c2cc1OC |
| 6.76 | 0.407 | 1.07 | < 5 |  | COc1cc2nc(N(C)CCCCCCN(C)C(=O)c3ccc(CCl)o3)nc(N)c2cc1OC |
| 72.4 | 13.8 | 2.95 | 5.12 |  | COc1cc2nc(N(C)CCCCCCN(C)C(=O)c3ccc(CN(C)C)cc3)nc(N)c2cc1OC |
| 417 | 2.82 | 1.86 | 5.31 |  | COc1cc2nc(N(C)CCCCCCN(C)C(=O)c3ccccc3CCl)nc(N)c2cc1OC |
| 58.9 | 6.76 | 9.77 | < 5 |  | COc1cc2nc(N(C)CCCCCCN(C)C(=O)c3ccc(CN4CCSC4)cc3)nc(N)c2cc1OC |
| 10.7 | 3.16 | 0.676 | 5.47 |  | COc1cc2nc(N(C)CCCCCCN(C)C(=O)c3ccccc3CNCCCCCCN)nc(N)c2cc1OC |
| 16.6 | 9.33 | 42.7 | < 5 |  | COc1cc2nc(N(C)CCSSCCN(C)C(=O)c3ccc(CCl)o3)nc(N)c2cc1OC |
| 79.4 | 51.3 | 66.1 | < 5 |  | COc1cc2nc(N(C)CCCCCCN(C)C(=O)c3cccc(CCl)c3)nc(N)c2cc1OC |
| 200 | 6.03 | 53.7 | < 5 |  | COc1cc2nc(N(C)CCSSCCN(C)C(=O)c3ccc(CN(C)C)o3)nc(N)c2cc1OC |
| 91.2 | 5.5 | 13.2 | < 5 |  | COc1cc2nc(N(C)CCCCCCN(C)C(=O)c3ccccc3CN(C)C)nc(N)c2cc1OC |
| 15.1 | 3.09 | 9.33 | 5.94 |  | COc1cc2nc(N(C)CCCCCCN(C)C(=O)c3cccc(CN4CCSC4)c3)nc(N)c2cc1OC |
| 38.9 | 5.89 | 2.4 | < 5 |  | COc1cc2nc(N(C)CCCCCCN(C)C(=O)c3ccc(CN(C)C)o3)nc(N)c2cc1OC |
| 47.9 | 2.04 | 2.45 | 5.44 |  | COc1cc2nc(N(C)CCCCCCN(C)C(=O)c3cccc(CN)c3)nc(N)c2cc1OC |
| 77.6 | 19.5 | 0.708 | 5.54 |  | COc1cc2nc(N(C)CCCCCCN(C)C(=O)c3ccc(CCl)cc3)nc(N)c2cc1OC |
|  |  |  | < 5 | 64.6 | COc1ccccc1N1CCN(CCN2C(=O)CC3(CCCC3)CC2=O)CC1 [BMY-7378] |
